# Assays:
# [1] = system: MMPs 1, 2 and 8; details: rat corneas; cited from earlier work
# [2] = in vivo; cited from earlier work
# [3] = system: MMP's 1, 2, 8 and 9; details: topical; rat cornea; animals with epithelial defects and with intact epithelium; cited from earlier work
# [4] = system: matrix metalloproteinases; assay: Activation of matrix metalloproteinases by gatifloxacin (established by the inventor)
smiles,measurement,setting,value
O=C(c1ccccc1)c1ccc2n1CCC2C(=O)O (stereo not drawn) [ketorolac],"expression of MMPs 1, 2 and 8",[1],induce expression
"C[C@H]1c2cccc(O)c2C(O)=C2C(=O)[C@]3(O)C(O)=C(C(N)=O)C(=O)[C@@H](N(C)C)[C@@H]3[C@@H](O)[C@@H]21 [doxycyline, doxycycline]",corneal penetration,[2],penetrate the cornea well
same,tolerability,[2],well tolerated
O=C(O)c1cn(C2CC2)c2cc(N3CCNCC3)c(F)cc2c1=O [ciprofloxacin],MMP levels in corneal epithelium and anterior stroma,[3],increased
COc1c(N2CCNC(C)C2)c(F)cc2c(=O)c(C(=O)O)cn(C3CC3)c12 (stereo not drawn) [gatifloxacin],activation of matrix metalloproteinases,[4],capable of activating matrix metalloproteinases
O=C(O)Cc1ccccc1Nc1c(Cl)cccc1Cl [Diclofenac],"expression of MMPs 1, 2 and 8",[1],induce expression
